In general, Ki refers to a measure of affinity in units of concentration, obtained from inhibition or displacement. Lower therefore signals higher affinity.

The assay has as its target T1, human vasopressin V1b receptor (Homo sapiens, UniProt P47901).
T1 construct: expressed in transfected cells; host or cells: CHO-K1 (cell line hV1b-3H2_CHO), membrane preparation
T1 sequence (P47901 1-424): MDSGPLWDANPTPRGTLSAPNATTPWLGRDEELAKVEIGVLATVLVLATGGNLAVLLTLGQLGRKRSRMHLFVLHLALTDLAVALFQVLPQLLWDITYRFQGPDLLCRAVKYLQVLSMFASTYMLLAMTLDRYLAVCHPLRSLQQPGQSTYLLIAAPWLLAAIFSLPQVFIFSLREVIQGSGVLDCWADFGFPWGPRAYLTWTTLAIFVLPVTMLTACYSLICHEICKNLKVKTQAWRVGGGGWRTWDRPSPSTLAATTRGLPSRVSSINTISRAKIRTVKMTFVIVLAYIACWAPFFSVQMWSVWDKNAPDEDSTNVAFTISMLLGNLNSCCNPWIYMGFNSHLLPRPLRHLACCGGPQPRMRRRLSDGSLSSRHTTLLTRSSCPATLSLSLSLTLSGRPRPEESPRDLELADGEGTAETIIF
The assay can be described thus: Vasopressin V1b receptor binding assay. The following applies: membranes from CHO-K1 cells with stably expressed human V1b receptors, 1.5 nM 3H-AVP displacement; with more than one stereogenic center: the diastereomer with stronger affinity. A digest of the protocol:
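Membranes bearing human V1b receptor incubated 60 min at room temperature in 50 mM Tris, 10 mM MgCl2, 0.1% BSA, pH 7.4, 2% DMSO, triplicate.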
As to `CCOc1ccccc1C1(N2CCN(c3ccncc3)CC2)C(=O)N(S(=O)(=O)c2ccccn2)c2ccc(C#N)cc21` (racemic) [Example 14, (±)-5-Cyano-3-(2-ethoxyphenyl)-1-(pyridine-2-sulfonyl)-3-(4-pyridin-4-yl-piperazin-1-yl)-2,3-dihydro-1H-indol-2-one], the Ki was in the range of 10 to 50 nM. Next, `CCOc1ccc(OC)cc1C1(N2CCN(C3CCN(C)CC3)CC2)C(=O)N(S(=O)(=O)c2ccc(OC)cn2)c2ccc(C#N)cc21` (single isomer, unassigned; (+)) [Example 141, (+)-5-Cyano-3-(2-ethoxy-5-methoxy-phenyl)-1-(5-methoxy-pyridine-2-sulfonyl)-3-[4-(1-methyl-piperidin-4-yl)-piperazin-1-yl]-2,3-dihydro-1H-indol-2-one]: 10 to 50 nM; `CCOc1ccc(OC)cc1C1(N2CCN(c3ccncc3)CC2)C(=O)N(S(=O)(=O)c2cccc3cccnc23)c2ccc(C#N)cc21` (racemic) [Example 13, (±)-5-Cyano-3-(2-ethoxy-5-methoxyphenyl)-3-(4-pyridin-4-yl-piperazin-1-yl)-1-(quinoline-8-sulfonyl)-2,3-dihydro-1H-indol-2-one]: less than 10 nM. On to `COc1ncccc1C1(N2CCN(c3ccncc3)CC2)C(=O)N(S(=O)(=O)c2cccc3cccnc23)c2ccc(C#N)cc21` (racemic) [Example 4, (±)-5-Cyano-3-(2-methoxypyridin-3-yl)-3-(4-pyridin-4-ylpiperazin-1-yl)-1-(quinoline-8-sulfonyl)-2,3-dihydro-1H-indol-2-one], for which the inhibitory constant (Ki) lay within 10 to 50 nM. Next, `CCOc1ccc(OC)cc1C1(N2CCN(c3ccnc(CC)c3)CC2)C(=O)N(S(=O)(=O)c2ccc(OC)c3cccnc23)c2ccc(C#N)cc21` (racemic) [Example 72, (±)-5-Cyano-3-(2-ethoxy-5-methoxyphenyl)-3-[4-(2-ethylpyridin-4-yl)piperazin-1-yl]-1-(5-methoxyquinoline-8-sulfonyl)-2,3-dihydro-1H-indol-2-one]: 10 to 50 nM. Next, `COc1ccc(CN(C)C)cc1C1(N2CCN(c3ccncc3)CC2)C(=O)N(S(=O)(=O)c2cccc3cccnc23)c2ccc(Cl)cc21` (racemic) [Example 41, (±)-5-Chloro-3-(5-dimethylaminomethyl-2-methoxyphenyl)-3-(4-pyridin-4-ylpiperazin-1-yl)-1-(quinoline-8-sulfonyl)-1,3-dihydroindol-2-one]: 10 to 50 nM; `CCOc1nc(Cl)ccc1C1(N2CCN(c3ccnc(C)c3)CC2)C(=O)N(S(=O)(=O)c2ccc(OC)cn2)c2ccc(C#N)cc21` (single isomer, unassigned; (+)) [Example 151, (+)-5-Cyano-3-(6-chloro-2-ethoxy-pyridin-3-yl)-1-(5-methoxy-pyridine-2-sulfonyl)-3-[4-(2-methyl-pyridin-4-yl)-piperazin-1-yl]-2,3-dihydro-1H-indol-2-one]: less than 10 nM. Molecule `CCOc1ccc(C)cc1C1(N2CCN(c3ccncc3)CC2)C(=O)N(S(=O)(=O)c2ccc(OC)c3cccnc23)c2ccc(C#N)cc21` (racemic) [Example 159, (±)-5-Cyano-3-(2-ethoxy-5-methyl-phenyl)-1-(5-methoxy-quinoline-8-sulfonyl)-3-(4-pyridin-4-yl-piperazin-1-yl)-2,3-dihydro-1H-indol-2-one] registered a Ki of less than 10 nM.

Turning to `CCOc1cc(OC)ccc1C1(N2CCN(c3ccncc3)CC2)C(=O)N(S(=O)(=O)c2cccc3cccnc23)c2ccc(C#N)cc21` (racemic) [Example 157, (±)-5-Cyano-3-(2-ethoxy-4-methoxy-phenyl)-3-(4-pyridin-4-yl-piperazin-1-yl)-1-(quinoline-8-sulfonyl)-2,3-dihydro-1H-indol-2-one], the inhibitory constant (Ki) lay within 10 to 50 nM.

For the molecule `CCOc1ccccc1C1(N2CCN(c3ccncc3)CC2)C(=O)N(S(=O)(=O)c2ccc(Cl)c3cccnc23)c2ccc(C#N)cc21` (racemic) [Example 12, (±)-5-Cyano-1-(5-chloroquinoline-8-sulfonyl)-3-(2-ethoxyphenyl)-3-(4-pyridin-4-yl-piperazin-1-yl)-2,3-dihydro-1H-indol-2-one], the Ki was 10 to 50 nM. Next, `CCOc1ccccc1C1(N2CCN(c3ccncc3C)CC2)C(=O)N(S(=O)(=O)c2cccc3cccnc23)c2ccc(C#N)cc21` (racemic) [Example 15, (±)-5-Cyano-3-(2-ethoxyphenyl)-3-[4-(3-methylpyridin-4-yl)-piperazin-1-yl]-1-(quinoline-8-sulfonyl)-2,3-dihydro-1H-indol-2-one]: 10 to 50 nM. Next, `CCOc1ccccc1C1(N2CCN(c3ccncc3)CC2)C(=O)N(S(=O)(=O)c2ccc(C)c3cccnc23)c2ccc(C#N)cc21` (racemic) [Example 88, (±)-5-Cyano-3-(2-ethoxyphenyl)-1-(5-methylquinoline-8-sulfonyl)-3-(4-pyridin-4-yl-piperazin-1-yl)-2,3-dihydro-1H-indol-2-one]: 10 to 50 nM; “(+)-5-Cyano-3-(2-ethoxy-5-methoxy-phenyl)-1-(5-methoxy-pyridine-2-sulfonyl)-3-[4-(4-methyl-piperazin-1-yl)-piperidin-1-yl]-2,3-dihydro-1H-indol-2-one [Example 158]”: less than 10 nM; `CCOc1ccc(OC)cc1C1(N2CCN(c3ccncc3)CC2)C(=O)N(S(=O)(=O)c2ccc(OC)c3cccnc23)c2ccc(C#N)cc21` (single isomer, unassigned; (+)) [Example 162, (+)-5-Cyano-3-(2-ethoxy-5-methoxy-phenyl)-1-(5-methoxy-quinoline-8-sulfonyl)-3-(4-pyridin-4-yl-piperazin-1-yl)-2,3-dihydro-1H-indol-2-one]: 10 to 50 nM. Next, `COc1cccc(C2(N3CCN(c4ccncc4)CC3)C(=O)N(S(=O)(=O)c3cccc4cccnc34)c3ccc(Cl)cc32)c1OC` (racemic) [Example 2, (±)-5-Chloro-3-(2,3-dimethoxyphenyl)-3-(4-pyridin-4-ylpiperazin-1-yl)-1-(quinoline-8-sulfonyl)-1,3-dihydroindol-2-one]: 10 to 50 nM. Take `CCOc1ccccc1C1(N2CCN(c3ccncc3)CC2)C(=O)N(S(=O)(=O)c2ccc(C)cn2)c2ccc(C#N)cc21` (single isomer, unassigned; (+)) [Example 61, (+)-5-Cyano-3-(2-ethoxyphenyl)-1-(5-methylpyridine-2-sulfonyl)-3-(4-pyridin-4-yl-piperazin-1-yl)-2,3-dihydro-1H-indol-2-one]: the Ki was less than 10 nM. Next, `CCOc1ccccc1C1(N2CCN(c3ccncc3)CC2)C(=O)N(S(=O)(=O)c2ccc(OC)cn2)c2ccc(C#N)cc21` (single isomer, unassigned; (+)) [Example 64, (+)-5-Cyano-3-(2-ethoxyphenyl)-1-(5-methoxypyridine-2-sulfonyl)-3-(4-pyridin-4-yl-piperazin-1-yl)-2,3-dihydro-1H-indol-2-one]: less than 10 nM; `CCOc1ccc(OC)cc1C1(N2CCN(c3ccnc(C(C)C)c3)CC2)C(=O)N(S(=O)(=O)c2cccc3cccnc23)c2ccc(C#N)cc21` (racemic) [Example 57, (±)-5-Cyano-3-(2-ethoxy-5-methoxyphenyl)-3-[4-(2-isopropylpyridin-4-yl)piperazin-1-yl]-1-(quinoline-8-sulfonyl)-2,3-dihydro-1H-indol-2-one]: less than 10 nM; `CCOc1ccc(OC)cc1C1(N2CCCN(c3ccnc(C(C)C)c3)CC2)C(=O)N(S(=O)(=O)c2ccc(OC)cn2)c2ccc(C#N)cc21` (racemic) [Example 154, (±)-5-Cyano-3-(2-ethoxy-5-methoxy-phenyl)-3-[4-(2-isopropyl-pyridin-4-yl)-[1,4]diazepan-1-yl]-1-(5-methoxy-pyridine-2-sulfonyl)-2,3-dihydro-1H-indol-2-one]: less than 10 nM.

`CCOc1nc(Cl)ccc1C1(N2CCN(c3ccnc(C)c3)CC2)C(=O)N(S(=O)(=O)c2ccc(OC)c3cccnc23)c2ccc(C#N)cc21` (racemic) [Example 85, (±)-5-Cyano-3-(6-chloro-2-ethoxypyridin-3-yl)-1-(5-methoxyquinoline-8-sulfonyl)-3-[4-(2-methylpyridin-4-yl)piperazin-1-yl]-2,3-dihydro-1H-indol-2-one]: the Ki was less than 10 nM. `CCOc1cc(F)ccc1C1(N2CCN(c3ccnc(C)c3)CC2)C(=O)N(S(=O)(=O)c2ccc(OC)cn2)c2ccc(C#N)cc21` (racemic) [Example 144, (±)-5-Cyano-3-(2-ethoxy-4-fluoro-phenyl)-1-(5-methoxy-pyridine-2-sulfonyl)-3-[4-(2-methyl-pyridin-4-yl)-piperazin-1-yl]-2,3-dihydro-1H-indol-2-one]: the Ki was less than 10 nM. Next, `CCOc1ccccc1C1(N2CCN(c3ccncc3)CC2)C(=O)N(S(=O)(=O)c2ccc(OC)cn2)c2ccc(C#N)cc21` (racemic) [Example 22, (±)-5-Cyano-3-(2-ethoxyphenyl)-1-(5-methoxypyridine-2-sulfonyl)-3-(4-pyridin-4-yl-piperazin-1-yl)-2,3-dihydro-1H-indol-2-one]: less than 10 nM.

The values are drawn from patent publication US8486931B2, “Substituted oxindole compounds” (Abbott GmbH & Co. KG, priority 2007, dated 2013).
